Source: patent US7087729B1, “Peptide conjugates for the stabilization of membrane proteins and interactions with biological membranes” (University Health Network, priority 1999, dated 2006)
Square brackets hold non-standard residues; d marks the D form. Peptide text beside a SMILES is read from it. * marks the point of attachment. X1 = CCCCCCCCCCCCCCCCCCCCCCCCCCCC(=O)*; Orn = NCCC[C@H](N)C(=O)O

What was measured:
[1] = Solubility of lipopeptide detergents in water; type: physicochemical
Method: The LPDs with chain lengths from 10 to 16 carbons are soluble in water to over 10 mM, and the LPDs with chain lengths from 18 to 24 carbons are soluble to over 1 mM. […] As a control, a reference molecule known as C-0 is made with the same peptide scaffold, but without the coupled lipids. […] Every batch of peptide is analyzed by MS to confirm the synthesis.

bacteriorhodopsin = molecular target: T1, bacteriorhodopsin (Halobacterium salinarum, UniProt P02945); test: Stabilization of detergent-solubilized bacteriorhodopsin after exchange of OG for LPD; absorption spectrum of supernatant during storage; set-up: species or system Halobacterium salinarium; details: stored in the dark at room temperature, spectra at 1 to 32 days, supernatant after 100,000xg
T1 construct: Purple membranes were isolated by overlaying 12.5 mL of the membrane suspension on a 40%/60% (10 mL/7.5 mL) sucrose gradient; made in house; host or cells: Halobacterium salinarium (strain a gift of J. Lanyi); protein isolated from purple membranes of the natural producer
T1 sequence (P02945 14-261 limits assumed): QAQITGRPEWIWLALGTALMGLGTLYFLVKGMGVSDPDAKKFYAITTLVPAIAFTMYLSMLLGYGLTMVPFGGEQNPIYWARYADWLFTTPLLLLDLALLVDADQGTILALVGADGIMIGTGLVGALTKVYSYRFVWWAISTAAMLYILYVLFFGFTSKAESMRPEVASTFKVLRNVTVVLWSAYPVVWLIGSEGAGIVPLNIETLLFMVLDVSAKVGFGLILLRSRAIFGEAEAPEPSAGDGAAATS
Method: The purple membranes were homogenized in 25 mM sodium phosphate, pH 6.9 with 1.5% OG (Anatrace, Maumee, Ohio) and mixed for 36 hours in the dark. After adjusting the pH to 5.5 with 0.1 N HCl, the solution was spun at 200,000×g for 45 minutes to obtain the soluble bacterioprhodopsin (BR) in the supernatant. The protein was concentrated to 5 mg/mL by ultrafiltration with an Amicon PM 10 membrane. BR was further purified from this solution by chromatography on a Superdex 75 gel filtration column in 25 mM sodium phosphate, pH 5.5, 1.2% (w/v) OG, at a flow rate of 1 mL/min.
Typically, the initial concentration of OG in the purified BR sample was approximately 50 mM, which is roughly twice the critical micelle concentration for this detergent.

[2] = cited from earlier work

| SMILES | solubility in water (in words) [1] | preservation of the native bacteriorhodopsin absorption spectrum over storage time (bacteriorhodopsin) | preservation of the native bacteriorhodopsin absorption spectrum over storage time (bacteriorhodopsin; listed as octyl glucoside (OG)) | solubility in water [2] |
| --- | --- | --- | --- | --- |
| CCCCCCCCCCCCCCCCCCCCCCCCCCCC(=O)NCCC[C@H](NC(=O)[C@H](C)NC(=O)[C@H](CCCCN)NC(=O)[C@H](C)NC(=O)[C@H](C)NC(=O)[C@H](CCCCN)NC(=O)[C@H](CCC(=O)O)NC(=O)[C@H](C)NC(=O)[C@H](C)NC(=O)[C@H](CCC(=O)O)NC(=O)[C@H](C)NC(=O)[C@H](C)NC(=O)[C@H](Cc1ccc(O)cc1)NC(=O)[C@H](CCCCN)NC(=O)[C@H](C)NC(=O)[C@H](C)NC(=O)[C@H](CCCCN)NC(=O)[C@H](CCC(=O)O)NC(=O)[C@H](C)NC(=O)[C@H](C)NC(=O)[C@H](CCC(=O)O)NC(=O)[C@H](C)NC(=O)[C@H](CCCNC(=O)CCCCCCCCCCCCCCCCCCCCCCCCCCC)NC(=O)[C@H](C)NC(C)=O)C(=O)N[C@@H](C)C(N)=O [LPD-28] (Ac-A[Orn](X1)AEAAEKAAKYAAEAAEKAAKA[Orn](X1)A-NH2) | poorly soluble in water |  |  |  |
| CCCCCCCCO[C@@H]1O[C@H](CO)[C@@H](O)[C@H](O)[C@H]1O [OG, octyl β-D-glucopyranoside] |  | lost the characteristic spectum for native bacteriorhodopsin within a few days | loss of the native conformation of the protein over time | greater than 20 % (w/v) |
| CCCCCCCCCCO[C@@H]1O[C@H](CO)[C@@H](O)[C@H](O)[C@H]1O [decyl glucoside] |  |  |  | 0.1 % (w/v) |
| CCCCCCCCCCCCO[C@@H]1O[C@H](CO)[C@@H](O)[C@H](O)[C@H]1O [dodecyl glucoside] |  |  |  | 0.008 % (w/v) |
